Two compounds from US10485841B2, “Method for producing dry extracts” (Bionorica SE, priority 2011, dated 2019) can be followed below.

A value given as a limit tells only on which side of the number the result lay.

For experiment [1], the system named is carrageen-induced paw oedema. The experiment in a line: carrageen-induced paw oedema in rats (Example 2). The class given is in vivo, rat. The following applies: 30 minutes following carrageen injection, FIG. 3. The source says: (§1) The anti-inflammatory activity of Sinupret could be confirmed in the animal model. For example, carrageen-induced paw oedema in rats (Male Wistar Han rats, 220-230 g) was selected as the test model. In this model, it was possible to examine the anti-inflammatory effect of test substances by measuring their inhibitory effect on the paw oedema or pleuritis caused by carrageen. The following were used as reference substances: (RS)-2-[4-(2-methylpropyl)phenyl]propanoic acid (Ibuprofen®) and 2-[1-(4-chlorobenzoyl)-5-methoxy-2-methyl-1H-indol-3-yl] acetic acid (indomethacin, “indo”). In the present tests, groups of 10 rats in each case were treated either with Ibuprofen®, indomethacin, Sinupret® dry extract (SIN TR) or Sinupret® drug mixture (SIN, as commercially available) and were injected one hour later with carrageen. The inhibition of the oedema formation by the test and reference substances was determined at various moments in time after carrageen injection, wherein the paw volume of animals treated only with carrageen was used as a control (vehicle=blank control). The results of these tests are presented in Tables 1 and 2 and in FIGS. 3 to 6 and will be explained hereinafter.

Experiment [2] deals with carrageen-induced pleuritis. The experiment in a line: carrageen-induced pleuritis in rats. The following applies: 5 mg/kg. The format is in vivo, rat.
Description: as §1
Rats (10 per group) were each treated with 100 mg/kg or 500 mg/kg of SIN and by way of comparison with 5 mg/kg of indomethacin and blank and were injected 1 hour later with carrageen.
“Inflammatory cells” correlates to PMN (polymorphonuclear neutrophils) accumulation/infiltration.
Statistics: average+/−SEM, n=10, ** p<0.01; ***p<0.001 vs vehicle (blank) (Tukey Test), p<0.05 is statistically significant.
Rats (10 per group) were each treated with 100 mg/kg or 500 mg/kg of SIN TR and by way of comparison with 5 mg/kg of indomethacin and blank and were injected one hour later with carrageen.

The mark [3] stands for this setting: 4 h after carrageen, mean ± SEM, n=10.

Consider `CC(C)Cc1ccc(C(C)C(=O)O)cc1` (racemic) [Ibuprofen®, (RS)-2-[4-(2-methylpropyl)phenyl]propanoic acid], for which the “inhibition of paw oedema” value in experiment [1] is “still did not show any anti-inflammatory effect”.
As to `COc1ccc2c(c1)c(CC(=O)O)c(C)n2C(=O)c1ccc(Cl)cc1` [Indomethacin, 2-[1-(4-chlorobenzoyl)-5-methoxy-2-methyl-1H-indol-3-yl] acetic acid], in experiment [2] (4 h), the “exudate volume, inhibition vs vehicle” value is listed as “(96%)” and the “inflammatory cells, inhibition vs vehicle” value is “(70%)”. Moreover, in experiment [2] (setting [3]), the IL1β was 3.17 ± 0.18 ng/rat, the LTB4 came out at 0.43 ± 0.02 ng/rat, the PGE2 was less than 0.125 ng/rat and the TNFα worked out at 5.48 ± 0.28 ng/rat. Moreover, in experiment [2] (setting [3]), the exudate volume came to 0.009 ± 0.003 mL and the “inflammatory cells × 10^6” value was 11.4 ± 0.93 × 10^6.
